Consider three compounds from patent publication US20250099491A1, “PREVENTION OR TREATMENT OF CARDIOVASCULAR DISEASES WITH HIGH PENETRATION PRODRUGS OF ASPIRIN AND OTHER NSAIDS” (Techfields Inc., priority 2022, published 2025).

The conditions of data set [1]: rabbit.
Data set [2] deals with rats with acute ischemia induced by Middle Cerebral Artery Occlusion (MCAO). Description: Example 14: acute ischemia induced by middle cerebral artery occlusion (MCAO) in rats. The class given is in vivo, rat. As to conditions: for infarct volume: Day 14 after MCAO, TTC staining, mean±SEM; for reduction of infarct volumes: comparators: oral 60 mg/kg bid, Edaravone 3 mg/kg i.v. q.d.

In data set [3] the test system is myocardial infarction in minipigs. Description: Example 20: myocardial infarction efficacy study in minipigs (circumflex coronary artery thrombosis). It is filed as in vivo, minipig. As to conditions: aspirin 20 mg/kg/time oral, twice a day. The protocol: Total 24 male minipigs were used for this study. […] The minipigs were already quarantined and acclimated. Before animal being transferred from holding colony, a physical examination was performed and the acceptability of the animals for the study was evaluated by veterinary. […] [table] […] Under anesthesia, thoracotomy was carried out and the circumflex coronary artery of the heart was exposed. The circumflex coronary artery thrombosis was induced by photochemical reaction. […] Photoirradiation was continued for a 30 min. […] After cutting the femoral artery, thoracotomy was carried out and the heart was removed. […] TTC regent for 5 min. After staining with TTC reagent, the photograph of the heart 5 blocks was taken. All blocks were immersed in 10% formalin neutral buffer solution. The 2nd block appeared large necrotic area was cut sections (thickness: 7-8 μm). Slice was stained with H & E reagent. […] The infarct lesions were defined as a necrotic portion of TTC stained blocks. […] The histopathological alteration (necrosis, inflammation, granulation, etc.) of myocardial infarction was examined using H & E stained slides.

The subject of data set [4] is rats with acute ischemia induced by Middle Cerebral Artery Occlusion (MCAO). Kind of data set: Example 16: acute ischemia induced by MCAO in rats. The class given is in vivo, rat. To be noted: for infarct volume: Day 14 after MCAO, TTC staining, mean±SEM; for reduction of infarct volumes: comparators: oral 60 mg/kg bid, Edaravone 3 mg/kg i.v. q.d.
Data set [5] relates to middle cerebral artery (MCA) thrombosis model of monkeys. Description: Example 19: middle cerebral artery (MCA) thrombosis model of monkeys. As to conditions: aspirin 20 mg/kg/time oral, twice a day.
Protocol: Aspirin was administered orally by gavage using a nasal catheter with a disposal syringe. The catheter was inserted into the stomach through the mouth. The treatment was once per day of MCA thrombosis (day 0), twice per day for 27 days.
The monkeys that had been fastened for at least 12 h were anesthetized with intramuscular administration of ketamine hydrochloride (20 mg/kg), and placed on an operation-bed. Anesthesia was continued with 1.0% isoflurane in O2 gas until 30 min. The inhalation anesthesia was performed with anesthesia machines (SN23402, Hallowell engineering and manufacturing corporation, USA) and respirators (SN23402, Hallowell engineering and manufacturing corporation, USA), and placed on an operation-bed. During anesthesia, body temperature of the animals (rectal temperature) was controlled between 37.0±0.5° C. by heating mattresses (XMTA-7000, Delixi Electric., Ltd.).
Under anesthesia, the left eye was enucleated using a bipolar coagulation device (Valleylab Force 1C, USA). A craniotomy was then performed supralaterally to the left side of the optic nerve. The next day animals were anesthetized with ketamine hydrochloride (20 mg/kg) and the dura and subarachnoid membrane were opened. MCA thrombosis was induced by photochemical reaction. The proximal part of the main MCA trunk. was irradiated with green light wave length 532 nm achieved by use of a xenon lamp (GL532T3-100FC, Shanghai Laser& Optics Century Col., Ltd.). The irradiation was directed by a 3-mm diameteroptic fiber mounted on a micromanipulator. Irradiation was started and rose bengal 20 mg/kg was injected intravenously. Photoirradiation was continued for a 30 min. The dura was then covered with a moist gelatin sponge.
Neurological deficits (see Table 3) were assessed 1, 3, 5, 7, 14 and 28 days after the onset of MCA thrombosis (day 0) in a blind manner. The neurological deficits was scored on consciousness, sensory system, motor system and skeletal muscle coordination, and the total neurological deficit score was calculated by summing the scores of consciousness, sensory system, motor system and skeletal muscle coordination.
The survival monkeys were deeply anesthetized with pentobarbital sodium (35 mg/kg, i.v.) 28 days after the onset of MCA thrombosis. After cutting the atriums of heart, 200 mL of heparinized physiological saline (10 U/mL) was allowed to perfuse the brain via the common carotid arteries, and followed by perfusion of 200 mL of 10% formalin neutral buffer solution. The whole brain was removed, and then was put in pathology sample preservation packs containing 10% formalin neutral buffer solution. For each brain sample, the coronal sections (thickness: 7-8 μm) per site were prepared at 10 sites at 4-mm intervals. Slices per site were each stained with H & E reagent.
Measurement of cerebral infarct lesions was carried out in a blind manner. The infarct lesions in the ischemic side are defined as a necrotic portion compared with that in the contralateral side. The infarcted area of left cerebral hemisphere (A) in the cross-sections was traced and measured using a computerized image analysis system (image J).
When the infarct size of 2 serial section was made into D and D′, the infarcted volume using the thickness (4 mm) of a section is measured in the following formula:
Total infarcted volume is calculated by summing the infarcted volume of the 10 serial sections.
Data set [6] deals with rats with acute ischemia induced by Middle Cerebral Artery Occlusion (MCAO). Kind of data set: Example 17: acute ischemia induced by MCAO in rats. It is filed as in vivo, rat. To be noted: for infarct volume: Day 14 after MCAO, TTC staining, mean±SEM; for reduction of infarct volumes: comparators: oral 60 mg/kg bid, Edaravone 3 mg/kg i.v. q.d.
The test system is the same in data set [7]. Description: Example 18: acute ischemia induced by MCAO in rats. The class given is in vivo, rat.
The test system is the same in data set [8]. Kind of data set: Example 15: acute ischemia induced by MCAO in rats. The class given is in vivo, rat.
Setting [9] is: 3 mg/kg i.v. q.d. 14 days, Day 14 after MCAO, TTC staining, mean±SEM.
Setting [10] is: comparators: oral 60 mg/kg bid, Edaravone 3 mg/kg i.v. q.d.

Like-named read-outs stand apart in the source and are kept apart here.

Take `CC(=O)Oc1ccccc1C(=O)O` [Compound-3, Aspirin]: the “The cumulative amount of test compounds” value is listed as 0.000 mg in data set [1] (1 h), 0.001 mg in data set [1] (2 h), 0.002 mg in data set [1] (4 h) and 0.003 mg in data set [1] (8 h). For the same compound, the values for the infarct volume in data set [2] (60 mg/kg oral bid 14 days), in data set [4] (60 mg/kg oral bid 14 days) and in data set [5] (Day 28 after MCA thrombosis) were 36.27%±2.123, 37.99%±1.985 and 1901 mm^3, respectively. In addition, the “reduction of infarct volumes” value in data set [2] and in data set [4] was “little reduction” throughout. Also, in data set [3], the “degeneration of myocardium and myocardial necrosis (histopathology)” value is “moderate”. Moreover, the “infarct volume (myocardial)” value in data set [3] (28 days after MCA thrombosis) amounted to 431 mm^3. The Mortality rate in data set [5] was 1/5. Besides, the “hemorrhage in the penumbra area” value in data set [5] was “showed hemorrhage”. Besides, the “liquefaction in the infarct area (histopathology)” value in data set [5] is listed as “moderate”. Also, in data set [5] (until 28 days after MCA thrombosis), the neurological deficits entry was “tended to show slight recovery”.

As for `CC(=O)Oc1ccc(-c2ccc(F)cc2F)cc1C(=O)O` [Compound-9, 2′,4′-difluoro-4-acetoxy-[1,1′-biphenyl]-3-carboxylic acid, reference compound], the “The cumulative amount of test compounds” value in data set [1] (1 h) is 0.000 mg; in data set [1] (2 h), 0.000 mg; in data set [1] (4 h) it was 0.001 mg; in data set [1] (8 h) it was 0.002 mg. In addition, the infarct volume in data set [6] (60 mg/kg oral bid 14 days) was 38.95%±2.176. Besides, the “reduction of infarct volumes” value in data set [6] is “little reduction”.

Turning to `CC1=NN(c2ccccc2)C(=O)C1` [Edaravone, reference compound], the infarct volume in data set [7] (setting [9]) is on record as 41.33%±2.792; in data set [2] (3 mg/kg i.v. q.d. 14 days), 38.07%±2.031; in data set [8] (setting [9]), 39.94%±2.256; in data set [4] (3 mg/kg i.v. q.d. 14 days), 39.27%±2.513; in data set [6] (3 mg/kg i.v. q.d. 14 days), 40.35%±2.078. Moreover, the “reduction of infarct volumes” value in data set [7] (setting [10]), in data set [2], in data set [8] (setting [10]), in data set [4] and in data set [6] was “little reduction” in each case.
